ChEMBL document CHEMBL1201862, “PubChem BioAssay data set” (2004)
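Tested at 5 concentrations; 48 h exposure; 96-well plates; endpoints linearly interpolated, else capped at highest concentration. GI50 = concentration required for 50% inhibition of growth.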 Activity calls are given as the source filed them. Cut-off read from the data, not from the text of the source: active = GI50 up to about 1.1 µM and inactive = higher.

Columns and labels:
Experiment in all cases: NCI-60 cell line screen, 48 h
A498 = test system: A498
BT-549 = test system: BT-549
HCC 2998 = test system: HCC 2998
HOP-62 = test system: HOP-62
Hs-578T = test system: Hs-578T
K562 = test system: K562
Malme-3M = test system: Malme-3M
NCI-H226 = test system: NCI-H226
NCI-H522 = test system: NCI-H522
PC-3 = test system: PC-3
SF-268 = test system: SF-268
SF-295 = test system: SF-295
SK-MEL-2 = test system: SK-MEL-2
SK-MEL-5 = test system: SK-MEL-5
SN12C = test system: SN12C
SNB-75 = test system: SNB-75
SR = test system: SR
U-251 = test system: U-251
UACC-62 = test system: UACC-62
LXFL 529 = test system: LXFL 529

Compound	GI50 (A498)	GI50 (BT-549)	GI50 (HCC 2998)	GI50 (HOP-62)	GI50 (Hs-578T)	GI50 (K562)	GI50 (Malme-3M)	GI50 (NCI-H226)	GI50 (NCI-H522)	GI50 (PC-3)	GI50 (SF-268)	GI50 (SF-295)	GI50 (SK-MEL-2)	GI50 (SK-MEL-5)	GI50 (SN12C)	GI50 (SNB-75)	GI50 (SR)	GI50 (U-251)	GI50 (UACC-62)	GI50 (LXFL 529)
CC(=O)CCNc1ccc(-c2cc(-c3ccc(N(C)C)cc3)nc3ccc4ccccc4c23)cc1	43.8 µM (inactive)	35.9 µM (inactive)	> 100 µM (inactive)	> 100 µM (inactive)	39.2 µM (inactive)	19.6 µM (inactive)	> 67.8 µM (inactive)	> 41.5 µM (inactive)	> 100 µM (inactive)	13.2 µM (inactive)	> 44.5 µM (inactive)	> 59.4 µM (inactive)	51.1 µM (inactive)	59.8 µM (inactive)	33.5 µM (inactive)	9.84 µM (inactive)	7.11 µM (inactive)	> 84.9 µM (inactive)	> 60.8 µM (inactive)	–
Clc1ccccc1C(Nc1cnccn1)Nc1cnccn1	> 100 µM (inactive)	> 100 µM (inactive)	> 100 µM (inactive)	> 100 µM (inactive)	> 100 µM (inactive)	4.12 µM (inactive)	> 100 µM (inactive)	> 100 µM (inactive)	> 100 µM (inactive)	> 100 µM (inactive)	> 100 µM (inactive)	> 100 µM (inactive)	> 100 µM (inactive)	> 100 µM (inactive)	> 100 µM (inactive)	96.6 µM (inactive)	0.07 µM (active)	> 100 µM (inactive)	> 100 µM (inactive)	–
S=C(NCc1ccccc1)N/N=C/c1ccccn1	3.87 µM (inactive)	8.02 µM (inactive)	6.31 µM (inactive)	3.7 µM (inactive)	14.8 µM (inactive)	0.0815 µM (active)	1.45 µM (inactive)	2.01 µM (inactive)	0.982 µM (active)	0.762 µM (active)	1.42 µM (inactive)	1.86 µM (inactive)	14.1 µM (inactive)	3.52 µM (inactive)	4.31 µM (inactive)	3.91 µM (inactive)	0.29 µM (active)	2.97 µM (inactive)	3.27 µM (inactive)	–
O=C1CC(=O)NC(NN2C(=O)/C(=C/c3ccc(Cl)c(Cl)c3)N=C2c2ccccc2)=N1	23.4 µM (inactive)	20.7 µM (inactive)	19.7 µM (inactive)	23.9 µM (inactive)	18.4 µM (inactive)	13.7 µM (inactive)	34.8 µM (inactive)	32.1 µM (inactive)	30.8 µM (inactive)	23.1 µM (inactive)	24.5 µM (inactive)	32 µM (inactive)	14.1 µM (inactive)	16.3 µM (inactive)	17.3 µM (inactive)	24 µM (inactive)	11.7 µM (inactive)	23.9 µM (inactive)	15.7 µM (inactive)	–
CN(N=O)c1nc2c(C(N)=O)ncn2s1	> 100 µM (inactive)	> 100 µM (inactive)	45.6 µM (inactive)	28.8 µM (inactive)	> 100 µM (inactive)	48.4 µM (inactive)	85.7 µM (inactive)	> 100 µM (inactive)	76.4 µM (inactive)	91.2 µM (inactive)	55.5 µM (inactive)	68.2 µM (inactive)	35.8 µM (inactive)	> 100 µM (inactive)	97.7 µM (inactive)	49 µM (inactive)	48.9 µM (inactive)	> 100 µM (inactive)	32.7 µM (inactive)	–
O=C1CCCC1C(O)(C(F)(F)Cl)C(F)(F)Cl (stereo not drawn)	> 10 µM (inactive)	> 10 µM (inactive)	> 10 µM (inactive)	> 10 µM (inactive)	> 10 µM (inactive)	> 10 µM (inactive)	> 10 µM (inactive)	> 10 µM (inactive)	> 10 µM (inactive)	> 10 µM (inactive)	> 10 µM (inactive)	> 10 µM (inactive)	> 10 µM (inactive)	> 10 µM (inactive)	> 10 µM (inactive)	> 10 µM (inactive)	> 10 µM (inactive)	> 10 µM (inactive)	> 10 µM (inactive)	–
CC1C(c2ccccc2O)c2cc3c(cc2OC1N1CCOCC1)OCO3 (stereo not drawn)	19.2 µM (inactive)	27.4 µM (inactive)	25 µM (inactive)	18.5 µM (inactive)	19.4 µM (inactive)	22.1 µM (inactive)	16.9 µM (inactive)	25.3 µM (inactive)	12.4 µM (inactive)	27.1 µM (inactive)	43 µM (inactive)	21.7 µM (inactive)	29 µM (inactive)	22.1 µM (inactive)	37.1 µM (inactive)	27.8 µM (inactive)	12.5 µM (inactive)	26.5 µM (inactive)	26.2 µM (inactive)	–
Cc1nnc(-n2c(O)cc(=O)n(-c3ccccc3)c2=S)nc1/C=C/c1ccc(N(C)C)cc1	27.1 µM (inactive)	20.9 µM (inactive)	6.49 µM (inactive)	5.86 µM (inactive)	4.99 µM (inactive)	5.81 µM (inactive)	2.69 µM (inactive)	32.3 µM (inactive)	1.32 µM (inactive)	8.41 µM (inactive)	22.4 µM (inactive)	12.9 µM (inactive)	10.9 µM (inactive)	3.58 µM (inactive)	> 43.5 µM (inactive)	4.38 µM (inactive)	5.02 µM (inactive)	10.1 µM (inactive)	6.53 µM (inactive)	–
CN1C[C@@H]2CCCN2P1Oc1cccc2cccnc12 (stereo partly drawn)	> 100 µM (inactive)	> 100 µM (inactive)	47.3 µM (inactive)	52.1 µM (inactive)	17.5 µM (inactive)	9.42 µM (inactive)	25.8 µM (inactive)	80.9 µM (inactive)	18.1 µM (inactive)	27.5 µM (inactive)	16 µM (inactive)	85.7 µM (inactive)	50.7 µM (inactive)	41.5 µM (inactive)	22.9 µM (inactive)	> 100 µM (inactive)	25.7 µM (inactive)	35.2 µM (inactive)	39.3 µM (inactive)	–
C#CC[N+](C)(CC#C)CC#C	–	–	> 100 µM (inactive)	> 100 µM (inactive)	–	> 100 µM (inactive)	> 100 µM (inactive)	–	> 100 µM (inactive)	–	> 100 µM (inactive)	> 100 µM (inactive)	> 100 µM (inactive)	> 100 µM (inactive)	> 100 µM (inactive)	> 100 µM (inactive)	–	–	> 100 µM (inactive)	> 100 µM (inactive)
NC(CP(=O)(O)O)C(=O)O (stereo not drawn)	> 100 µM (inactive)	> 100 µM (inactive)	> 100 µM (inactive)	> 100 µM (inactive)	> 100 µM (inactive)	> 100 µM (inactive)	> 100 µM (inactive)	> 100 µM (inactive)	> 100 µM (inactive)	> 100 µM (inactive)	> 100 µM (inactive)	> 100 µM (inactive)	> 100 µM (inactive)	> 100 µM (inactive)	> 100 µM (inactive)	> 100 µM (inactive)	> 100 µM (inactive)	> 100 µM (inactive)	> 100 µM (inactive)	–
